{"source": "patent US20180256462A1", "about": "“ALCOHOL-BASED SKIN SANITIZER HAVING MICROBICIDAL PROPERTIES” (DEB IP LIMITED, priority 2015, published 2018)", "origin": "cited, not measured here", "key": {"Microsporum gypseum [1]": {"system": "Microsporum gypseum"}, "Staphylococcus aureus": {"system": "Staphylococcus aureus", "settings": "low concentrations (0.5 to 2 mM), disk diffusion"}, "Lactobacillus fermentum": {"system": "Lactobacillus fermentum", "settings": "live cells of Lactobacillus fermentum, flow cytometry"}, "Microsporum gypseum [2]": {"system": "Microsporum gypseum", "settings": "10% in Vaseline petroleum jelly, topical daily for 3 weeks; for skin lesion scoring: first week of application; for histopathologic examination of skin tissues (hyperkeratosis, inflammatory cell infiltration): versus positive control"}}, "note": "Read-outs that look alike come from different tables or passages of the source."}
{"smiles": "C=CC(C)(O)CCC=C(C)CCC=C(C)C", "note": "(mixture of isomers) [nerolidol, 3,7,11-trimethyl-1,6,10-dodecatrien-3-ol]", "values": [{"measurement": "MIC", "setting": "Microsporum gypseum [1]", "result": "0.5-2%"}, {"measurement": "susceptibility of Staphylococcus aureus to ciprofloxacin, clindamycin, erythromycin, gentamicin, tetracycline, and vancomycin", "setting": "Staphylococcus aureus", "result": "enhanced the susceptibility of Staphylococcus aureus"}, {"measurement": "intracellular accumulation of ethidium bromide", "setting": "Lactobacillus fermentum", "result": "promoted the intracellular accumulation of the membrane-impermeant nucleic acid stain ethidium bromide"}, {"measurement": "hair culture test", "setting": "Microsporum gypseum [2]", "result": "improved the skin lesions infected by M. gypseum"}, {"measurement": "skin lesion scoring", "setting": "Microsporum gypseum [2]", "result": "clinically effective at improving the lesion during the first week of application"}, {"measurement": "histopathologic examination of skin tissues (hyperkeratosis, inflammatory cell infiltration)", "setting": "Microsporum gypseum [2]", "result": "lower degree of hyperkeratosis and inflammatory cell infiltration than the positive control"}, {"measurement": "sensitization of Escherichia coli to polymyxin B", "setting": "Escherichia coli", "result": "sensitized Escherichia coli to polymyxin B"}]}
{"smiles": "CC(C)=CCC/C(C)=C/CC1CCCC1=O", "note": "(stereo not drawn) [apritone]", "values": [{"measurement": "susceptibility of Staphylococcus aureus to ciprofloxacin, clindamycin, erythromycin, gentamicin, tetracycline, and vancomycin", "setting": "Staphylococcus aureus", "result": "enhanced the susceptibility of Staphylococcus aureus"}, {"measurement": "intracellular accumulation of ethidium bromide", "setting": "Lactobacillus fermentum", "result": "promoted the intracellular accumulation of the membrane-impermeant nucleic acid stain ethidium bromide"}]}
{"smiles": "CC(C)=CCC[C@](C)(O)C1CC=C(C)CC1", "note": "(stereo partly drawn) [bisabolol]", "values": [{"measurement": "susceptibility of Staphylococcus aureus to ciprofloxacin, clindamycin, erythromycin, gentamicin, tetracycline, and vancomycin", "setting": "Staphylococcus aureus", "result": "enhanced the susceptibility of Staphylococcus aureus"}, {"measurement": "intracellular accumulation of ethidium bromide", "setting": "Lactobacillus fermentum", "result": "promoted the intracellular accumulation of the membrane-impermeant nucleic acid stain ethidium bromide"}]}
{"smiles": "Clc1ccc(COC(Cn2ccnc2)c2ccc(Cl)cc2Cl)cc1", "note": "(stereo not drawn) [econazole]", "values": [{"measurement": "MIC", "setting": "Microsporum gypseum [1]; positive control", "result": "4 to 16", "unit": "µg/mL"}]}
{"smiles": "C=CCc1ccc(O)c(OC)c1", "note": "[eugenol]", "values": [{"measurement": "MIC", "setting": "Microsporum gypseum [1]", "result": "0.01-0.03%"}, {"measurement": "hair culture test", "setting": "Microsporum gypseum [2]", "result": "did not"}, {"measurement": "skin lesion scoring", "setting": "Microsporum gypseum [2]", "result": "clinically effective at improving the lesion during the first week of application"}, {"measurement": "histopathologic examination of skin tissues (hyperkeratosis, inflammatory cell infiltration)", "setting": "Microsporum gypseum [2]", "result": "lower degree of hyperkeratosis and inflammatory cell infiltration than the positive control"}]}
{"smiles": "CC(C)=CCCC(C)=CCCC(C)=CCO", "note": "[farnesol]", "values": [{"measurement": "intracellular accumulation of ethidium bromide", "setting": "Lactobacillus fermentum", "result": "promoted the intracellular accumulation of the membrane-impermeant nucleic acid stain ethidium bromide"}, {"measurement": "sensitization of Escherichia coli to polymyxin B", "setting": "Escherichia coli", "result": "sensitized Escherichia coli to polymyxin B"}]}
